# Measurements published in EP1025097B1, “1-(2-NAPHTHYL) AND 1-(2-AZANAPHTHYL)-4-(1-PHENYLMETHYL)PIPERAZINES BEING DOPAMINE D 4? RECEPTOR SUBTYPE LIGANDS” (NEUROGEN CORPORATION, priority 1997, dated 1999).
# Target: T1, D2 receptors (Chlorocebus aethiops, UniProt P52702)
# T1 construct: expressed in transfected cells; host or cells: COS cells
# Test: Assay for D2 receptor binding activity (3H-YM 09151-2 displacement, COS cell pellets)
# Parameters: species or system African Green monkey
# Conditions: recombinant receptor in COS cells; 0.5 nM 3H-YM 09151-2
# Procedure: Pellets of COS cells containing recombinantly produced D2 or D4 receptors from African Green monkey are used for the assays. The sample is homogenized in 100 volumes (w/vol) of 0.05 M Tris HCl buffer at 4° C and pH 7.4. The sample is then centrifuged at 30,000 x g and resuspended and rehomogenized. The sample is again centrifuged as described above and the final tissue sample is frozen until use. The tissue is resuspended 1:20 (wt/vol) in 0.05 M Tris HCl buffer containing 100 mM NaCl.
# Incubations are carried out at […] and contain 0.4 ml of tissue sample, 0.5 nM ^3H-YM 09151-2 (Nemonapride, cis-5-Chloro-2-methoxy-4-(methylamino)-N-(2-methyl-2-(phenylmethyl)-3-pyrrolidinyl)benzamide)and the compound of interest in a total incubation of 1.0 ml. Nonspecific binding is defined as that binding found in the presence of […] spiperone; without further additions, nonspecific binding is less than 20% of total binding. Binding characteristics for examples of compounds encompassed within Formulae II, III and V for the D2 and D4 receptor subtypes are shown in Table 2 for […].
# T1 sequence (P52702 whole entry): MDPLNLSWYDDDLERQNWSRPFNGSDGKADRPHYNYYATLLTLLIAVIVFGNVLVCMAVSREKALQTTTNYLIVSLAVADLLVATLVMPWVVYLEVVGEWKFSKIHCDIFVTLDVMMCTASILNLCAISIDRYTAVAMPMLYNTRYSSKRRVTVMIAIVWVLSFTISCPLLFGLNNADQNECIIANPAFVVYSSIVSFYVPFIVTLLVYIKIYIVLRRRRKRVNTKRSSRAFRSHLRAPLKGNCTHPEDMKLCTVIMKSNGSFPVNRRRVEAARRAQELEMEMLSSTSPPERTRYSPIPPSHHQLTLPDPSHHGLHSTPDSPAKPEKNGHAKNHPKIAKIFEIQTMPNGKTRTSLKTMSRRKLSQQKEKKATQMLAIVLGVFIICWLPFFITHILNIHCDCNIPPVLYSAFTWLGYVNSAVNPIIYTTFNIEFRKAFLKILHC
row,Ki [µM],SMILES
1,> 4,Cc1ccc(CN2CCN(c3ccc4ccccc4n3)CC2)cc1 [Compound 2]
2,> 4,Clc1ccc(CN2CCN(c3cnc4ccccc4n3)CC2)cc1 [Compound 3]
3,> 4,Clc1ccc(CN2CCN(c3ccc4ccccc4c3)CC2)cc1 [Compound 6]
